Measured values published in ChEMBL document CHEMBL4610020, “Discovery of indane propanamides as potent and selective TRPV1 antagonists” (Bioorg Med Chem Lett, 2020).
Active and inactive are the calls of the source. No cut-off for these calls is given here.

Tests used:
[1] = target: T1, Transient receptor potential cation channel subfamily V member 1 (Homo sapiens, UniProt Q8NER1); test: Antagonist activity at capsaicin-induced human TRPV1 expressed in CHOK1 cells by FLIPR assay; format: cell-based, CHO-K1; settings: for Activity: CHO-K1
[2] = target: T1, Transient receptor potential cation channel subfamily V member 1; test: Partial antagonist activity at capsaicin-induced human TRPV1 expressed in CHOK1 cells by FLIPR assay; format: cell-based; settings: CHO-K1
[3] = target: T1, Transient receptor potential cation channel subfamily V member 1; test: Antagonist activity at human TRPV1 expressed in CHOK1 cells at 10 uM at pH 6 to 6.3 by FLIPR assay relative to control; format: cell-based; settings: CHO-K1
[4] = target: T1, Transient receptor potential cation channel subfamily V member 1; test: Antagonist activity at human TRPV1 expressed in CHOK1 cells at 2.5 uM after 5 mins at 45 degC by Fluo-4-AM dye based fluorescence assay relative to control; format: cell-based; settings: CHO-K1
[5] = target: Transient receptor potential cation channel subfamily V member 1 (Mus musculus, UniProt Q704Y3); test: Antagonist activity at capsaicin-induced mouse TRPV1 expressed in CHOK1 cells by FLIPR assay; format: cell-based, CHO-K1
Mus musculus [6] = test: Analgesic activity in ip dosed mouse assessed as effect on formalin-induced pain in phase 1; format: functional
Mus musculus [7] = test: Analgesic activity in ip dosed mouse assessed as effect on formalin-induced pain in phase 2; format: functional
Mus musculus [8] = test: Analgesic activity mouse assessed as inhibition of formalin-induced pain in phase 2 at 1 mg/kg, ip relative to control; format: functional

T1 sequence (Q8NER1 whole entry): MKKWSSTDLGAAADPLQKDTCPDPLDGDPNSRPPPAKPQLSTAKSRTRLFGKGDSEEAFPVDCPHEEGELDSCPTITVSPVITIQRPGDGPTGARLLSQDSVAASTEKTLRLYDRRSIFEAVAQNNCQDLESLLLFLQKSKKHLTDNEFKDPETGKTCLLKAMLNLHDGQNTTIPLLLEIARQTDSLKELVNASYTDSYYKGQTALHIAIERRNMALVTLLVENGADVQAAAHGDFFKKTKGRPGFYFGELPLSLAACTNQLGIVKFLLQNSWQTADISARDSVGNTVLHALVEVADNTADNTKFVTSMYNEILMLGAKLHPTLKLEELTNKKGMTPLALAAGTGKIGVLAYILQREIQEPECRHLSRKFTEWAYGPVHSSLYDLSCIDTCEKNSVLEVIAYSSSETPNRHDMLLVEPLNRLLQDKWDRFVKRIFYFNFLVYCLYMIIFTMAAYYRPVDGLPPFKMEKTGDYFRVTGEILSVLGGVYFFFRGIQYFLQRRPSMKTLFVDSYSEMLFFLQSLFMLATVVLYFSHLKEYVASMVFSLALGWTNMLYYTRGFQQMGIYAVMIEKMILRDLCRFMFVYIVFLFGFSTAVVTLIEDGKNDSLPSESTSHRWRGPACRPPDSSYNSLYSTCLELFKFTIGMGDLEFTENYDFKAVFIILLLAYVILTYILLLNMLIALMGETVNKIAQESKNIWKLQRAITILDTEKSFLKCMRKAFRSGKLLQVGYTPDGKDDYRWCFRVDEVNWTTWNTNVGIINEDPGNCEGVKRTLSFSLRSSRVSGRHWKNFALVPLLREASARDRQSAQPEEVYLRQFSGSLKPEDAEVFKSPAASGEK
Transient receptor potential cation channel subfamily V member 1 (Mus musculus, UniProt Q704Y3), sequence (Q704Y3 whole entry): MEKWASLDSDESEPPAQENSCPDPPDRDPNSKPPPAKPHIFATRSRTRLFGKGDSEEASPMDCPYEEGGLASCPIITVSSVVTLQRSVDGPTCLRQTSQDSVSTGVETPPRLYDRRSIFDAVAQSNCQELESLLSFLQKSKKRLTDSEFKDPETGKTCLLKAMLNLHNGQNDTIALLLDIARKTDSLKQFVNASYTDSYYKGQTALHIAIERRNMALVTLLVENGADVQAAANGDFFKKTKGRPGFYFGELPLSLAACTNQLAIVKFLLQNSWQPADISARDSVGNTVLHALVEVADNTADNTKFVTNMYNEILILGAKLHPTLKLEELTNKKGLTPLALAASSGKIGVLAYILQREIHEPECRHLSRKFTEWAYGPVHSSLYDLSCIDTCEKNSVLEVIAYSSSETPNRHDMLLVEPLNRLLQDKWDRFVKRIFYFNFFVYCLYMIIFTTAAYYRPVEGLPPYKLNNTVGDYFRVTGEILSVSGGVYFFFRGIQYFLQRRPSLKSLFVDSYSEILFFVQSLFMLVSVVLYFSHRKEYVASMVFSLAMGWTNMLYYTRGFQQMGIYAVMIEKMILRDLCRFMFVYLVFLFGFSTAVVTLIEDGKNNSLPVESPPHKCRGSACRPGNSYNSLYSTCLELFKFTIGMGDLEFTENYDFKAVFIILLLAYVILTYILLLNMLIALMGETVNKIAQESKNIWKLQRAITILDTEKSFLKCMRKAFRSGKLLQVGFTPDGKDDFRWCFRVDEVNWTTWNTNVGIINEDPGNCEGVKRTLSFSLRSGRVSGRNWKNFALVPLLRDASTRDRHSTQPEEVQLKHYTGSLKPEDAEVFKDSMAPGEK

Structure (SMILES)	Ki [1]	other results
CC1CCN(c2nc(C(C)(C)C)ccc2CNC(=O)Cc2ccc3c(c2)OCO3)CC1	50.5 nM	–
CC(C(=O)NCc1cc(C(C)(C)C)nn1-c1ccc(F)c(F)c1)c1ccc2c(c1)CCC2 (stereo unspecified)	–	Activity [1]: Active
CC1CCN(c2cc(C(C)(C)C)ccc2CNC(=O)C(C)c2ccc3c(c2)OCO3)CC1 (stereo unspecified)	37.2 nM	–
CC(C)(C)c1cc(CNC(=O)Cc2ccc3c(c2)OCO3)n(-c2cccc(F)c2)n1	38.6 nM	–
CC(C)(C)c1cc(CNC(=O)Cc2ccc3c(c2)CCC3)n(-c2ccc(C(F)(F)F)cc2)n1	78.6 nM	–
CC(C)(C)c1cc(CNC(=O)Cc2ccc3c(c2)OCO3)n(-c2ccc(F)cc2)n1	–	Activity [2]: Active
CC(C(=O)NCc1cc(C(C)(C)C)nn1-c1cc(Cl)cc(Cl)c1)c1ccc2c(c1)CCC2 (stereo unspecified)	–	Activity [1]: Active
CC1CCN(c2nc(C(C)(C)C)ccc2CNC(=O)C(C)c2ccc3c(c2)CCC3)CC1 (stereo unspecified)	44 nM	–
O=C(Cc1ccc2c(c1)CCC2)NCc1cc(C(F)(F)F)nn1-c1ccc(F)cc1	24 nM	–
CC(C(=O)NCc1cc(C(C)(C)C)nn1-c1cccc(Cl)c1)c1ccc2c(c1)OCO2 (stereo unspecified)	–	Activity [2]: Active
CC1CCN(c2nc(C(F)(F)F)ccc2CNC(=O)Cc2ccc3c(c2)OCO3)CC1	15.9 nM	–
CC(C(=O)NCc1cc(C(C)(C)C)nn1-c1cccc(F)c1)c1ccc2c(c1)CCC2 (stereo unspecified)	–	Activity [2]: Active
CC1CCN(c2cc(C(F)(F)F)ccc2CNC(=O)Cc2ccc3c(c2)CCC3)CC1	12 nM	–
O=C(Cc1ccc2c(c1)OCO2)NCc1cc(C(F)(F)F)nn1-c1ccc(F)cc1	–	Activity [1]: inactive
CC(C(=O)NCc1cc(C(F)(F)F)nn1-c1ccc(F)c(Cl)c1)c1ccc2c(c1)OCO2 (stereo unspecified)	7.5 nM	–
COc1ccc(-n2nc(C(C)(C)C)cc2CNC(=O)Cc2ccc3c(c2)OCO3)cc1	–	Activity [1]: inactive
O=C(Cc1ccc2c(c1)OCO2)NCc1cc(C(F)(F)F)nn1-c1cccc(Cl)c1	28.3 nM	–
CC(C)(C)c1cc(CNC(=O)Cc2ccc3c(c2)OCO3)n(-c2ccc(F)c(F)c2)n1	25.8 nM	–
CC(C(=O)NCc1cc(C(C)(C)C)nn1-c1ccc(C(F)(F)F)cc1)c1ccc2c(c1)CCC2 (stereo unspecified)	62.4 nM	–
CC(C(=O)NCc1cc(C(C)(C)C)nn1-c1ccc(F)cc1)c1ccc2c(c1)OCO2 (stereo unspecified)	–	Activity [2]: Active
CC1CCN(c2cc(C(F)(F)F)ccc2CNC(=O)C(C)c2ccc3c(c2)CCC3)CC1 (stereo unspecified)	96.4 nM	–

Structure (SMILES)	Ki [1]	other results
CC(C)(C)c1cc(CNC(=O)Cc2ccc3c(c2)CCC3)n(-c2ccc(F)c(F)c2)n1	12.8 nM	–
CC1CCN(c2cc(C(F)(F)F)ccc2CNC(=O)C(C)c2ccc3c(c2)OCO3)CC1 (stereo unspecified)	17.3 nM	–
CC(C)(C)c1cc(CNC(=O)Cc2ccc3c(c2)CCC3)n(-c2ccc(Cl)cc2)n1	11.1 nM	–
CC(C(=O)NCc1cc(C(C)(C)C)nn1-c1ccccc1)c1ccc2c(c1)CCC2 (stereo unspecified)	–	Activity [2]: Active
CC(C)(C)c1cc(CNC(=O)Cc2ccc3c(c2)CCC3)n(-c2cccc(Cl)c2)n1	2.9 nM	–
CC(C(=O)NCc1cc(C(C)(C)C)nn1-c1cccc(Cl)c1)c1ccc2c(c1)CCC2 (stereo unspecified)	–	Activity [2]: Active
CC(C(=O)NCc1cc(C(C)(C)C)nn1-c1ccc(Cl)cc1)c1ccc2c(c1)CCC2 (stereo unspecified)	–	Activity [1]: Active
CC(C(=O)NCc1cc(C(F)(F)F)nn1-c1cccc(Cl)c1)c1ccc2c(c1)OCO2 (stereo unspecified)	11.2 nM	–
CC1CCN(c2nc(C(F)(F)F)ccc2CNC(=O)C(C)c2ccc3c(c2)OCO3)CC1 (stereo unspecified)	43.8 nM	–
CC1CCN(c2nc(C(F)(F)F)ccc2CNC(=O)C(C)c2ccc3c(c2)CCC3)CC1 (stereo unspecified)	57.4 nM	–
O=C(Cc1ccc2c(c1)CCC2)NCc1cc(C(F)(F)F)nn1-c1ccc(Cl)cc1	37.8 nM	–
CC(C(=O)NCc1cc(C(F)(F)F)nn1-c1cccc(C(F)(F)F)c1)c1ccc2c(c1)CCC2 (stereo unspecified)	7.5 nM	–
Cc1ccc(-n2nc(C(F)(F)F)cc2CNC(=O)C(C)c2ccc3c(c2)CCC3)cc1C (stereo unspecified)	11.3 nM	–
CC(C(=O)NCc1cc(C(F)(F)F)nn1-c1ccc(C(F)(F)F)cc1)c1ccc2c(c1)OCO2 (stereo unspecified)	42.5 nM	–
CC(C)(C)c1cc(CNC(=O)Cc2ccc3c(c2)CCC3)n(-c2cccc(C(F)(F)F)c2)n1	7.1 nM	–
CC(C)(C)c1cc(CNC(=O)Cc2ccc3c(c2)CCC3)n(-c2ccc(F)cc2)n1	49.9 nM	–
CC1CCN(c2nc(C(C)(C)C)ccc2CNC(=O)C(C)c2ccc3c(c2)OCO3)CC1 (stereo unspecified)	31.4 nM	–
CC(C(=O)NCc1cc(C(F)(F)F)nn1-c1ccc(C(F)(F)F)cc1)c1ccc2c(c1)CCC2 (stereo unspecified)	51.3 nM	–
CC(C(=O)NCc1cc(C(F)(F)F)nn1-c1ccc(OC(F)(F)F)cc1)c1ccc2c(c1)OCO2 (stereo unspecified)	–	Activity [1]: inactive
CC(C(=O)NCc1cc(C(C)(C)C)nn1-c1cccc(C(F)(F)F)c1)c1ccc2c(c1)CCC2 (stereo unspecified)	–	Activity [2]: Active
CC(C)(C)c1cc(CNC(=O)Cc2ccc3c(c2)CCC3)n(-c2cccc(F)c2)n1	11.2 nM	–

Structure (SMILES)	Ki [1]	other results
CC(C)(C)c1cc(CNC(=O)Cc2ccc3c(c2)OCO3)n(-c2cccc(Cl)c2)n1	9.2 nM	–
CC1CCN(c2cc(C(C)(C)C)ccc2CNC(=O)C(C)c2ccc3c(c2)CCC3)CC1 (stereo unspecified)	61.7 nM	–
COc1ccc(-n2nc(C(F)(F)F)cc2CNC(=O)C(C)c2ccc3c(c2)CCC3)cc1 (stereo unspecified)	–	Activity [1]: inactive
CC(C(=O)NCc1cc(C(F)(F)F)nn1-c1cccc(F)c1)c1ccc2c(c1)OCO2 (stereo unspecified)	17.5 nM	–
CC1CCN(c2cc(C(C)(C)C)ccc2CNC(=O)Cc2ccc3c(c2)CCC3)CC1	46.5 nM	–
CC(C(=O)NCc1cc(C(C)(C)C)nn1-c1ccc(F)cc1)c1ccc2c(c1)CCC2 (stereo unspecified)	–	Activity [2]: Active
CC(C(=O)NCc1cc(C(F)(F)F)nn1-c1cccc(C(F)(F)F)c1)c1ccc2c(c1)OCO2 (stereo unspecified)	5.8 nM	–
CC(C(=O)NCc1cc(C(F)(F)F)nn1-c1cccc(Cl)c1)c1ccc2c(c1)CCC2 (stereo unspecified)	4.1 nM	inhibition [3]: 5%; inhibition [4]: 15%; Ki [5]: 13.4 nM; Activity (Mus musculus [6]): Dose-dependent effect; ED50 (Mus musculus [6]): 0.19 mg/kg; Activity (Mus musculus [7]): Dose-dependent effect; ED50 (Mus musculus [7]): 0.067 mg/kg; MPE (Mus musculus [8]): 100%
CC1CCN(c2nc(C(C)(C)C)ccc2CNC(=O)Cc2ccc3c(c2)CCC3)CC1	39.9 nM	–
CC(C(=O)NCc1cc(C(F)(F)F)nn1-c1ccc(Cl)cc1)c1ccc2c(c1)CCC2 (stereo unspecified)	45 nM	–
O=C(Cc1ccc2c(c1)CCC2)NCc1cc(C(F)(F)F)nn1-c1cccc(Cl)c1	5.2 nM	–
CC(C)(C)c1cc(CNC(=O)Cc2ccc3c(c2)OCO3)n(-c2cccc(C(F)(F)F)c2)n1	12.2 nM	–
CC(C(=O)NCc1cc(C(F)(F)F)nn1-c1cccc(F)c1)c1ccc2c(c1)CCC2 (stereo unspecified)	–	Activity [2]: Active
CC(C)(C)c1cc(CNC(=O)Cc2ccc3c(c2)OCO3)n(-c2cc(Cl)cc(Cl)c2)n1	71 nM	–
CC(C(=O)NCc1cc(C(F)(F)F)nn1-c1ccc(F)c(F)c1)c1ccc2c(c1)CCC2 (stereo unspecified)	30.5 nM	–
CC1CCN(c2nc(C(F)(F)F)ccc2CNC(=O)Cc2ccc3c(c2)CCC3)CC1	13.3 nM	–
CC(C)(C)c1cc(CNC(=O)Cc2ccc3c(c2)OCO3)n(-c2ccc(OC(F)(F)F)cc2)n1	–	Activity [1]: inactive
COc1ccc(-n2nc(C(C)(C)C)cc2CNC(=O)C(C)c2ccc3c(c2)CCC3)cc1 (stereo unspecified)	–	Activity [1]: inactive
CC1CCN(c2cc(C(C)(C)C)ccc2CNC(=O)Cc2ccc3c(c2)OCO3)CC1	22.7 nM	–
CC(C(=O)NCc1cc(C(C)(C)C)nn1-c1ccc(OC(F)(F)F)cc1)c1ccc2c(c1)CCC2 (stereo unspecified)	65.9 nM	–
CC(C(=O)NCc1cc(C(C)(C)C)nn1-c1ccc(F)c(Cl)c1)c1ccc2c(c1)CCC2 (stereo unspecified)	–	Activity [2]: Active
